# According to patent US20090181931A1, “ANTIVIRAL ACTIVITY OF CIDOFOVIR AGAINST ONCOLYTIC VIRUSES” (priority 2008, published 2009):
# “And” between values parts separate entries of the source, which are not always exact repeats. Identical values can stand only once.
# Tests used:
# ONYX-015 = experiment: Real-time quantitative PCR, viral E1A copy number, ONYX-015 in H1299 cells; assay type: cell-based, adenovirus; details: for E1A copy number, % (relative to 0 uM) / E1A copy number/ng DNA: ONYX-015 MOI 10, H1299, 24 hours
# Experimental: (§1) Cells were seeded in 6-well plate (2 mL/well, 2×10^5 cells/well), and incubated with 5% CO2 at 37° C.
# (§2) Viruses were diluted at a MOI of 10. Medium in each well was removed, 500 μL of diluted virus solution was added to each well of the plate. Plates were incubated with 5% CO2 at 37° C. for 2 hours with gently shaking every 15 minutes. Medium was aspirated, washed with PBS twice, and replaced with fresh medium containing 2% FCS and serially diluted CDV. Cells were incubated with 5% CO2 at 37° C. for 24 hours after infection.
# (§3) Cells were detached with Trypsin-EDTA, and collected by centrifuging. Total DNA was extracted using QIAamp™ DNA Mini Kit according to manufacture's instructions with some modifications: addition of 20 μL of RNaseA in each sample when adding ProK. DNA was eluted by 50˜100 μL of D. W.
# (§4) Concentration of DNA was determined by measuring O.D.260. Each DNA samples was diluted by D. W. at a concentration of 5 ng/μL.
# (§5) Master-mix for E1A primer was prepared using LightCycler™ Faststart DNAMaster SYBR Green™ according to Table 1. Standard DNA was prepared by serially 10 times dilution of pCRII-E1A plasmid (1×10^9, 1×10^8, 1×10^7, 1×10^6, 1×10^5, 1×10^4, and 1×10^3 copies/μL). 2 μL of Sample or Standard DNA was and 18 μL of Master mix were added into capillaries (total volume was 20 μL per capillary).
# (§6) Q-PCR was performed according to the program of Table 2 (LightCycler quicksystem 350S). Results obtained here were analyzed using LightCycler softwere.
# Telomelysin (OBP-301) = experiment: XTT assay, protection from cytopathic effect of Telomelysin in A549 cells; assay type: cell-based, adenovirus; details: for Protection (%) Ave. / Protection (%): Telomelysin MOI 5, A549, 7 days; for Protection (%): single wells, dihydrate
# Experimental: (§7) Cells frozen in liquid nitrogen were thawed in water bath at 37° C., seeded at T25 flask, and cultured at 70-90% sub-confluent monolayer. Cells were detached with trypsin, and prepared suspension at a concentration of 1.0×10^4 cells/ml.
# (§8) Cells were seeded in 96 well-plate (100 μL/well, 1000 cells/well), then cultured with 5% CO2 at 37° C.
# (§9) Viruses were diluted at MOI of 1 (OBP-301, OBP-202) in H1299 and 5 in A549 (PFU/cell). Medium in each well was removed, 150 μL of diluted virus solution was added to each well of the plate. 2 hours later, medium was aspirated and replaced with fresh medium containing 2% FCS and serially diluted CDV. Cells were incubated with 5% CO2 at 37° C. for 7 days after infection.
# (§10) 100 μL of PBS, 50 μL of XTT labeling reagent, and 1 μL of ion coupling reagent per well of plate were mixed.
# (§11) Medium in each well of plate was removed, and 150 μL of mixture prepared above was added to each well. Plate was incubated with 5% CO2 at 37° C. for 4 hours, and then calculated absorbance at 450 nm and 690 nm. Protection was determined by the formula below:
# (§12) Protection(%)={OD(AdV(+):CDV(+))−OD(AdV(+):CDV(−))}/{OD(AdV(−):CDV(+))−OD(AdV(+):CDV(−))}×100.
# TelomeScan (OBP-401) [1] = experiment: XTT assay, protection from cytopathic effect of TelomeScan (OBP-401) in H1299 cells; assay type: cell-based, adenovirus; details: for Protection (%) Ave. / Protection (%): OBP-401 MOI 0.1, H1299, 7 days; for Protection (%): single wells, dihydrate
# Experimental: as §7, §8
# as §9, with “0.1 (OBP-401) or 10 (ONYX-015)” for “1 (OBP-301, OBP-202)”, “H1299.” for “H1299 and 5 in A549 (PFU/cell).”, “50” for “150”
# as §10, §11, §12
# TelomeScan (OBP-401) [2] = experiment: Real-time quantitative PCR, viral E1A copy number, TelomeScan in H1299 cells; assay type: cell-based, adenovirus; details: for E1A copy number, % (relative to 0 uM) / E1A copy number/ng DNA: TelomeScan MOI 10, H1299, 24 hours
# Experimental: as §1, §2, §3, §4, §5, §6
# [3] = tested on: Wild-type adenovirus (OBP-202); experiment: Real-time quantitative PCR, viral E1A copy number, wild-type adenovirus in H1299 cells; assay type: cell-based; details: for E1A copy number, % (relative to 0 μM) / E1A copy number/ng DNA: Wt-Ad MOI 10, H1299, 24 hours
# Experimental: as §1, §2, §3, §4, §5, §6
compound,measurement,setting,value
"Nc1ccn(C[C@@H](CO)OCP(=O)(O)O)c(=O)n1.O.O [CDV, 1-[(S)-3-hydroxy-2-(phosphonomethoxy)propyl]cytosine dihydrate]","E1A copy number, % (relative to 0 uM)",ONYX-015; CDV 0.16 uM,86.98%
same,E1A copy number/ng DNA,ONYX-015; CDV 0.16 uM,2.291E+07 copy number/ng DNA
same,"E1A copy number, % (relative to 0 uM)",ONYX-015; CDV 0.8 uM,91.04%
same,E1A copy number/ng DNA,ONYX-015; CDV 0.8 uM,2.398E+07 copy number/ng DNA
same,"E1A copy number, % (relative to 0 uM)",ONYX-015; CDV 4 uM,83.71%
same,E1A copy number/ng DNA,ONYX-015; CDV 4 uM,2.205E+07 copy number/ng DNA
same,"E1A copy number, % (relative to 0 uM)",ONYX-015; CDV 20 uM,45.10%
same,E1A copy number/ng DNA,ONYX-015; CDV 20 uM,1.188E+07 copy number/ng DNA
same,"E1A copy number, % (relative to 0 uM)",ONYX-015; CDV 100 uM,11.20%
same,E1A copy number/ng DNA,ONYX-015; CDV 100 uM,2.950E+06 copy number/ng DNA
same,Viral E1A copy number,"ONYX-015; ONYX-015, H1299 cells, dose-dependent manner",reduced
same,Telomelysin-mediated cytopathic effect,"Telomelysin (OBP-301); A549 cells, FIG. 1A",apparently inhibited
same,Protection (%) Ave.,Telomelysin (OBP-301); CDV 10 μM,1.376%
same,Protection (%),Telomelysin (OBP-301); CDV 10 μM,1.991% and 0.387% and 1.136%
same,Protection (%) Ave.,Telomelysin (OBP-301); CDV 20 μM,7.535%
same,Protection (%),Telomelysin (OBP-301); CDV 20 μM,7.548% and 4.342% and 7.388% and 10.862%
same,Protection (%) Ave.,Telomelysin (OBP-301); CDV 30 μM,40.094%
same,Protection (%),Telomelysin (OBP-301); CDV 30 μM,41.269% and 33.413% and 44.208% and 41.483%
same,Protection (%) Ave.,Telomelysin (OBP-301); CDV 40 μM,56.713%
same,Protection (%),Telomelysin (OBP-301); CDV 40 μM,61.951% and 52.118% and 53.881% and 58.904%
same,Protection (%) Ave.,Telomelysin (OBP-301); CDV 50 μM,61.202%
same,Protection (%),Telomelysin (OBP-301); CDV 50 μM,69.539% and 54.148% and 62.592% and 58.530%
same,Protection (%) Ave.,Telomelysin (OBP-301); CDV 60 μM,67.295%
same,Protection (%),Telomelysin (OBP-301); CDV 60 μM,68.310% and 63.768% and 66.440% and 70.661%
same,Protection (%) Ave.,Telomelysin (OBP-301); CDV 70 μM,62.538%
same,Protection (%),Telomelysin (OBP-301); CDV 70 μM,66.226% and 58.424% and 61.844% and 63.661%
same,Protection (%) Ave.,Telomelysin (OBP-301); CDV 80 μM,56.740%
same,Protection (%),Telomelysin (OBP-301); CDV 80 μM,54.790% and 51.637% and 59.279% and 61.256%
same,Protection (%) Ave.,Telomelysin (OBP-301); CDV 90 μM,49.806%
same,Protection (%),Telomelysin (OBP-301); CDV 90 μM,51.423% and 50.514% and 50.942% and 46.346%
same,Protection (%) Ave.,Telomelysin (OBP-301); CDV 100 μM,38.090%
same,Protection (%),Telomelysin (OBP-301); CDV 100 μM,33.948% and 41.590% and 36.834% and 39.987%
same,EC50,"Telomelysin (OBP-301); Telomelysin, A549 cells, XTT, read-out: EC50, CDV concentration that archive the protection to 50%",35.9 µM
same,Protection (%) Ave.,TelomeScan (OBP-401) [1]; CDV 0.01 μM,−0.229%
same,Protection (%),TelomeScan (OBP-401) [1]; CDV 0.01 μM,−1.063% and 0.309% and −0.240% and 0.080%
same,Protection (%) Ave.,TelomeScan (OBP-401) [1]; CDV 0.06 μM,0.057%
same,Protection (%),TelomeScan (OBP-401) [1]; CDV 0.06 μM,−0.423% and −0.514% and 1.589%
same,Protection (%) Ave.,TelomeScan (OBP-401) [1]; CDV 0.32 μM,0.171%
same,Protection (%),TelomeScan (OBP-401) [1]; CDV 0.32 μM,0.400% and 0.674% and −0.789%
same,Protection (%) Ave.,TelomeScan (OBP-401) [1]; CDV 1.6 μM,1.931%
same,Protection (%),TelomeScan (OBP-401) [1]; CDV 1.6 μM,3.006% and −0.057% and 2.594% and 2.183%
same,Protection (%) Ave.,TelomeScan (OBP-401) [1]; CDV 8 μM,0.469%
same,Protection (%),TelomeScan (OBP-401) [1]; CDV 8 μM,3.280% and 0.263% and −0.743% and −0.926%
same,Protection (%) Ave.,TelomeScan (OBP-401) [1]; CDV 40 μM,40.926%
same,Protection (%) Ave.,TelomeScan (OBP-401) [1]; CDV 200 μM,15.154%
same,Protection (%) Ave.,TelomeScan (OBP-401) [1]; CDV 1000 μM,1.463%
same,Protection (%),TelomeScan (OBP-401) [1]; CDV 1000 μM,0.446% and 0.537% and 3.554% and 1.314%
same,cytopathic effect induced by TelomeScan,"TelomeScan (OBP-401) [1]; H1299 cells, FIG. 2A",apparently inhibited
same,"E1A copy number, % (relative to 0 uM)",TelomeScan (OBP-401) [2]; CDV 0.16 uM,103.48%
same,E1A copy number/ng DNA,TelomeScan (OBP-401) [2]; CDV 0.16 uM,2.350E+08 copy number/ng DNA
same,"E1A copy number, % (relative to 0 uM)",TelomeScan (OBP-401) [2]; CDV 0.8 uM,83.22%
same,E1A copy number/ng DNA,TelomeScan (OBP-401) [2]; CDV 0.8 uM,1.890E+08 copy number/ng DNA
same,"E1A copy number, % (relative to 0 uM)",TelomeScan (OBP-401) [2]; CDV 4 uM,100.62%
same,E1A copy number/ng DNA,TelomeScan (OBP-401) [2]; CDV 4 uM,2.285E+08 copy number/ng DNA
same,"E1A copy number, % (relative to 0 uM)",TelomeScan (OBP-401) [2]; CDV 20 uM,70.19%
same,E1A copy number/ng DNA,TelomeScan (OBP-401) [2]; CDV 20 uM,1.594E+08 copy number/ng DNA
same,"E1A copy number, % (relative to 0 uM)",TelomeScan (OBP-401) [2]; CDV 100 uM,21.83%
same,E1A copy number/ng DNA,TelomeScan (OBP-401) [2]; CDV 100 uM,4.957E+07 copy number/ng DNA
same,Viral E1A copy number,"TelomeScan (OBP-401) [2]; TelomeScan, H1299 cells, dose-dependent manner",reduced
same,"E1A copy number, % (relative to 0 μM)",[3]; CDV 0.16 μM,117.49%
same,E1A copy number/ng DNA,[3]; CDV 0.16 μM,6.152E+07 copy number/ng DNA
same,"E1A copy number, % (relative to 0 μM)",[3]; CDV 0.8 μM,95.65%
same,E1A copy number/ng DNA,[3]; CDV 0.8 μM,5.008E+07 copy number/ng DNA
same,"E1A copy number, % (relative to 0 μM)",[3]; CDV 4 μM,74.69%
same,E1A copy number/ng DNA,[3]; CDV 4 μM,3.911E+07 copy number/ng DNA
same,"E1A copy number, % (relative to 0 μM)",[3]; CDV 20 μM,32.83%
same,E1A copy number/ng DNA,[3]; CDV 20 μM,1.719E+07 copy number/ng DNA
same,"E1A copy number, % (relative to 0 μM)",[3]; CDV 100 μM,4.79%
same,E1A copy number/ng DNA,[3]; CDV 100 μM,2.509E+06 copy number/ng DNA
same,Viral E1A copy number,"[3]; wild-type AdV, H1299 cells, dose-dependent manner",reduced
